Where two headings read alike, the source gives them in different places.
How the values were obtained:
Assay type in all cases: in vivo
[1] = tested on: Abutilon theophrasti; test: greenhouse post-emergence herbicidal activity, ABUTH; settings: read-out: % activity (solo application); for activity at 2 g/ha: 2 gai/ha
Description: (§1) The following examples serve to illustrate the invention.
(§2) The culture containers used were plastic pots containing loamy sand with approximately 3.0% of humus as substrate. The seeds of the test plants were sown separately for each species.
(§3) For the post-emergence treatment, the test plants were grown to a plant height of from 3 to 15 cm, depending on the plant habit, and only then treated with the active compounds which had been suspended or emulsified in water. To this end, the test plants were either sown directly, and grown in the same containers, or they were first grown separately as seedlings and transplanted into the test containers a few days prior to treatment.
(§4) Depending on the species, the plants were kept at 10-25 °C and 20-35 °C, respectively. The test period extended over 2 to 4 weeks. During this time, the plants were tended and their response to the individual treatments was evaluated.
(§5) Evaluation was carried out using a scale from 0 to 100. 100 means no emergence of the plants, or complete destruction of at least the above-ground parts, and 0 means no damage or normal course of growth. A good herbicidal activity is given at values of at least 70, and very good herbicidal activity is given at values of at least 85.
(§6) The respective stated components A and B, and if appropriate, C were formulated as a 5% by weight strength emulsion concentrate and, with addition of the amount of solvent system, introduced into the spray liquor used for applying the active compound. In the examples, the solvent used was water.
(§7) In the examples below, using the method of S. R. Colby (1967) “Calculating synergistic and antagonistic responses of herbicide combinations”, Weeds 15, p. 22ff., the value E, which is expected if the activity of the individual active compounds is only additive, was calculated.
(§8) E=X+Y−(X·Y/100) • where • X=percent activity using active compound A at an application rate a; • Y=percent activity using active compound B at an application rate b; • E=expected activity (in %) by A+B at application rates a+b.
(§9) The plants used in the greenhouse experiments were of the following species
(§10) In this context, a.i. means active ingredient, based on 100% active ingredient.
(§11) As indicated the application was post emergent (POST) at the respective growth stage (GS) of the weed.
(§12) Assessment was at the indicated days after treatment (DAT).

[2] = tested on: Avena fatua; test: greenhouse post-emergence herbicidal activity, AVEFA; settings: read-out: % activity (solo application); for activity at 2 g/ha / activity at 4 g/ha: 168 h, GS 12-16, 7 DAT; for activity at 2 g/ha: 2 gai/ha; for activity at 4 g/ha: 4 gai/ha; for activity at 0.5 g/ha: 0.5 gai/ha
Description: as §1, §2, §3, §4, §5, §6, §7, §8, §9, §10, §11, §12

[3] = tested on: Setaria faberi; test: greenhouse post-emergence herbicidal activity, SETFA; settings: Setaria faberi, post-emergence, read-out: % activity (solo application); for activity at 2 g/ha: 2 gai/ha; for activity at 4 g/ha: 4 gai/ha; for activity at […]: 0.25 gai/ha; for activity at 0.5 g/ha: 0.5 gai/ha
Description: as §1, §2, §3, §4, §5, §6, §7, §8, §9, §10, §11, §12

[4] = tested on: Amaranthus tamariscinus; test: greenhouse post-emergence herbicidal activity, AMATA; settings: 0.25 gai/ha, read-out: % activity (solo application)
Description: as §1, §2, §3, §4, §5, §6, §7, §8, §9, §10, §11, §12

[5] = tested on: Digitaria sanguinales; test: greenhouse post-emergence herbicidal activity, DIGSA; settings: for activity at […]: 0.25 gai/ha
Description: as §1, §2, §3, §4, §5, §6, §7, §8, §9, §10, §11, §12

[6] = tested on: Eleusine indica; test: greenhouse post-emergence herbicidal activity, ELEIN; settings: 480 h, GS 12-16, 20 DAT, 0.25 gai/ha, read-out: % activity (solo application)
Description: as §1, §2, §3, §4, §5, §6, §7, §8, §9, §10, §11, §12

[7] = tested on: Kochia scoparia; test: greenhouse post-emergence herbicidal activity, KCHSC; settings: for % activity: solo application, KCHSC
Description: as §1, §2, §3, §4, §5, §6, §7, §8, §9, §10, §11, §12

[8] = tested on: Setaria viridis; test: greenhouse post-emergence herbicidal activity, SETVI; settings: for activity at 1 g/ha: 1 gai/ha; for % activity: solo application, SETVI, GS 11-33, 8 DAT, use rate 0.8 gai/ha
Description: as §1, §2, §3, §4, §5, §6, §7, §8, §9, §10, §11, §12

[9] = tested on: Commenline benghalensis; test: greenhouse post-emergence herbicidal activity, COMBE; settings: read-out: % activity (solo application); for activity at 0.5 g/ha: 0.5 gai/ha
Description: as §1, §2, §3, §4, §5, §6, §7, §8, §9, §10, §11, §12

[10] = tested on: Echinocloa crus-galli; test: greenhouse post-emergence herbicidal activity, ECHCG; settings: for % activity: solo application, ECHCG, GS 11-33, 20 DAT
Description: as §1, §2, §3, §4, §5, §6, §7, §8, §9, §10, §11, §12

[11] = tested on: Brachiaria decumbens; test: greenhouse post-emergence herbicidal activity, BRADC; settings: solo application, BRADC, GS 11-33, 20 DAT, use rate 1.6 gai/ha
Description: as §1, §2, §3, §4, §5, §6, §7, §8, §9, §10, §11, §12

[12] = tested on: Lolium multiflorum; test: greenhouse post-emergence herbicidal activity, LOLMU; settings: solo application, LOLMU, GS 11-33, 7 DAT, use rate 1.6 gai/ha
Description: as §1, §2, §3, §4, §5, §6, §7, §8, §9, §10, §11, §12

[13] = tested on: Sorghum halepense; test: greenhouse post-emergence herbicidal activity, SORHA; settings: solo application, SORHA, GS 11-33, 20 DAT, use rate 1.6 gai/ha
Description: as §1, §2, §3, §4, §5, §6, §7, §8, §9, §10, §11, §12

[14] = Digitaria, post-emergence, 480 h, GS 12-16, 20 DAT, read-out: % activity (solo application)
[15] = 480 h, GS 12-16, 20 DAT, 1 gai/ha

C=C[C@]1(C(=O)N[C@@H]2CO[C@H](C(=O)OC)C2)CC(c2cc(F)cc(F)c2)=NO1 [(II.1.cis.A), methyl (2S,4S)-4-[[(5S)-3-(3,5-difluorophenyl)-5-vinyl-4H-isoxazole-5-carbonyl]amino]tetrahydrofuran-2-carboxylate]
activity at 2 g/ha ([1]; 168 h, GS 12-16, 7 DAT): 15% | activity at 2 g/ha ([1]; 504 h, GS 12-16, 21 DAT): 0% | activity at 2 g/ha [2]: 20% | activity at 4 g/ha [2]: 25% | activity at 2 g/ha ([3]; 168 h, GS 12-16, 7 DAT): 70% | activity at 4 g/ha ([3]; 168 h, GS 12-16, 7 DAT): 70% | activity at 2 g/ha ([3]; 504 h, GS 12-16, 21 DAT): 75% | activity at 4 g/ha ([3]; 504 h, GS 12-16, 21 DAT): 85%

C=C[C@]1(C(=O)N[C@H]2CO[C@@H](C(=O)OC)C2)CC(c2cc(F)cc(F)c2)=NO1 [(II.1.cis.B), methyl (2R,4R)-4-[[(5S)-3-(3,5-difluorophenyl)-5-vinyl-4H-isoxazole-5-carbonyl]amino]tetrahydrofuran-2-carboxylate]
activity at 0.5 g/ha ([1]; 144 h, GS 12-16, 6 DAT, 0.5 gai/ha): 0% | activity at […] ([4]; 144 h, GS 12-16, 6 DAT): 15% | activity at 2 g/ha [2]: 10% | activity at 4 g/ha [2]: 20% | activity at […] [5, 14]: 20% | activity at 0.5 g/ha ([5]; Digitaria, post-emergence, 480 h, GS 12-16, 20 DAT, 0.5 gai/ha, read-out: % activity (solo application)): 50% | activity at […] [6]: 20% | activity at 0.5 g/ha ([7]; Bassia scoparia, post-emergence, 480 h, GS 12-16, 20 DAT, 0.5 gai/ha, read-out: % activity (solo application)): 15% | activity at […] ([3]; 144 h, GS 12-16, 6 DAT): 35% | activity at 0.5 g/ha ([3]; 144 h, GS 12-16, 6 DAT): 55% | activity at […] ([3]; 480 h, GS 12-16, 20 DAT): 20% | activity at 0.5 g/ha ([3]; 480 h, GS 12-16, 20 DAT): 25% | activity at 0.5 g/ha ([8]; Setaria viridis, post-emergence, 480 h, GS 12-16, 20 DAT, 0.5 gai/ha, read-out: % activity (solo application)): 50%

C=C[C@]1(C(=O)N[C@H]2C=C[C@@H](C(=O)OC)C2)CC(c2cc(F)cc(F)c2)=NO1 [(II.5.cis.B), methyl (1S,4R)-4-[[(5S)-3-(3,5-difluorophenyl)-5-vinyl-4H-isoxazole-5-carbonyl]amino]cyclopent-2-ene-1-carboxylate]
activity at […] ([4]; 144 h, GS 12-16, 6 DAT): 45% | activity at […] ([4]; 480 h, GS 12-16, 20 DAT): 40% | activity at 2 g/ha [2]: 40% | activity at […] ([9]; 144 h, GS 12-16, 6 DAT, 0.25 gai/ha): 40% | activity at 0.5 g/ha ([9]; 144 h, GS 12-16, 6 DAT): 55% | activity at 0.5 g/ha ([9]; 480 h, GS 12-16, 20 DAT): 70% | activity at […] [5, 14]: 35% | activity at […] ([10]; Echinochloa crus-galli, post-emergence, 144 h, GS 12-16, 6 DAT, 0.25 gai/ha, read-out: % activity (solo application)): 15% | activity at […] ([3]; 144 h, GS 12-16, 6 DAT): 40% | activity at […] ([3]; 480 h, GS 12-16, 20 DAT): 30%

C[C@]1(C(=O)N[C@H]2C=C[C@@H](C(=O)O)C2)CC(c2cc(F)cc(F)c2)=NO1 [(II.8.cis.B), (1S,4R)-4-[[(5R)-3-(3,5-difluorophenyl)-5-methyl-4H-isoxazole-5-carbonyl]amino]cyclopent-2-ene-1-carboxylic acid]
activity at 0.5 g/ha ([2]; 144 h, GS 12-16, 6 DAT): 20% | activity at 2 g/ha [2]: 30% | activity at 4 g/ha [2]: 30% | activity at 0.5 g/ha ([2]; 480 h, GS 12-16, 20 DAT): 15% | activity at 1 g/ha [2, 15]: 65% | activity at 0.5 g/ha ([9]; 144 h, GS 12-16, 6 DAT): 15% | activity at 1 g/ha ([9]; 144 h, GS 12-16, 6 DAT, 1 gai/ha): 40% | activity at 1 g/ha ([10]; Echinochloa crus-galli, post-emergence, 144 h, GS 12-16, 6 DAT, 1 gai/ha, read-out: % activity (solo application)): 70% | activity at 1 g/ha ([7]; Bassia scoparia, post-emergence, 480 h, GS 12-16, 20 DAT, 1 gai/ha, read-out: % activity (solo application)): 20% | activity at 0.5 g/ha ([3]; 144 h, GS 12-16, 6 DAT): 20% | activity at 0.5 g/ha ([3]; 480 h, GS 12-16, 20 DAT): 30% | activity at 1 g/ha [3, 15]: 50% | activity at 1 g/ha ([8]; Setaria viridis, post-emergence, 144 h, GS 12-16, 6 DAT, read-out: % activity (solo application)): 10% | activity at 1 g/ha ([8]; Setaria viridis, post-emergence, 480 h, GS 12-16, 20 DAT, read-out: % activity (solo application)): 20%

CCOC(=O)COc1ncccc1Oc1nc(-n2c(=O)cc(C(F)(F)F)n(C)c2=O)c(F)cc1Cl [I.6]
% activity [11]: 40% | % activity ([5]; solo application, DIGSA, GS 11-33, 20 DAT, use rate 1.6 gai/ha): 50% | % activity ([10]; use rate 1.6 gai/ha): 45% | % activity ([7]; GS 11-33, 20 DAT, use rate 0.8 gai/ha): 55% | % activity [12]: 15% | % activity [8]: 30% | % activity [13]: 10%

CCOC(=O)COc1ncccc1Oc1nc(-n2c(=O)cc(C(F)(F)F)n(C)c2=O)c(F)cc1Br [I.9]
% activity ([10]; use rate 0.4 gai/ha): 40% | % activity ([7]; GS 11-33, 7 DAT, use rate 0.4 gai/ha): 60% | % activity [8]: 75%

Source: patent US20260363244A1, “HERBICIDAL COMPOSITIONS COMPRISING URACILS” (BASF SE, priority 2022, published 2026)
